The values that follow are results of earlier work, collected in US20110177137A1, “NOVEL DOSAGE FORM OF PALIPERIDONE AND PROCESS FOR PREPARING THE SAME” (INTAS PHARMACEUTICALS LIMITED, priority 2008, published 2011).

Consider `Cc1nc2n(c(=O)c1CCN1CCC(c3noc4cc(F)ccc34)CC1)CCCC2O` (stereo not drawn) [Paliperidone], for which, where the note is “0.1 N HCl”, the “solubility in 0.1 N HCl” value is “soluble”. Moreover, the “solubility in methyl chloride” value (methyl chloride) is “partly soluble”. For the same molecule, the solubility in water result (water) was “insoluble”.
